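Cultured in 96-well plates, cells were exposed to test compound for 48 hours across five concentrations. GI50 marks 50% less growth.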 Activity calls are given as the source filed them. No stated cut-off is given here; in the data, active = GI50 up to about 1.1 µM and inactive = higher.
Key:
Experiment in all cases: DTP human tumour cell line panel, 48 h
CCRF-CEM = tested on: CCRF-CEM
RPMI-8226 = tested on: RPMI-8226
A549 = tested on: A549
SK-MEL-2 = tested on: SK-MEL-2
HOP-92 = tested on: HOP-92
NCI-H522 = tested on: NCI-H522
SK-MEL-5 = tested on: SK-MEL-5
ACHN = tested on: ACHN
MDA-N = tested on: MDA-N
TK-10 = tested on: TK-10
OVCAR-8 = tested on: OVCAR-8
SN12C = tested on: SN12C
T47D = tested on: T47D
HCT-15 = tested on: HCT-15
HOP-62 = tested on: HOP-62
PC-3 = tested on: PC-3
EKVX = tested on: EKVX
CAKI-1 = tested on: CAKI-1
SK-OV-3 = tested on: SK-OV-3
NCI-H23 = tested on: NCI-H23

| SMILES | GI50 (CCRF-CEM) | GI50 (RPMI-8226) | GI50 (A549) | GI50 (SK-MEL-2) | GI50 (HOP-92) | GI50 (NCI-H522) | GI50 (SK-MEL-5) | GI50 (ACHN) | GI50 (MDA-N) | GI50 (TK-10) | GI50 (OVCAR-8) | GI50 (SN12C) | GI50 (T47D) | GI50 (HCT-15) | GI50 (HOP-62) | GI50 (PC-3) | GI50 (EKVX) | GI50 (CAKI-1) | GI50 (SK-OV-3) | GI50 (NCI-H23) |
| --- | --- | --- | --- | --- | --- | --- | --- | --- | --- | --- | --- | --- | --- | --- | --- | --- | --- | --- | --- | --- |
| O=C(OCc1ccccc1)N1CCNCCN(C(=O)OCc2ccccc2)CCNCC1 | 36.5 µM (inactive) | 20.2 µM (inactive) | 63.2 µM (inactive) | 20.1 µM (inactive) | 21.1 µM (inactive) | 16.3 µM (inactive) | 13.4 µM (inactive) | 50.4 µM (inactive) | 15.6 µM (inactive) | 91.8 µM (inactive) | 55.1 µM (inactive) | 39.4 µM (inactive) | 0.254 µM (active) | 32.5 µM | 16.9 µM (inactive) | 25.9 µM (inactive) | 28 µM (inactive) | 15 µM (inactive) | 49.8 µM (inactive) |  |
| CC(=O)Oc1ccc2c(c1)c1c(=O)oc(N(C)C)nc1n2Cc1ccccc1 | 55.6 µM (inactive) | > 65 µM (inactive) | 48.4 µM (inactive) | > 76.6 µM (inactive) | 19.5 µM (inactive) | 12.8 µM (inactive) | 42 µM (inactive) | 45.3 µM (inactive) | > 71.4 µM (inactive) | > 100 µM (inactive) | 57.8 µM (inactive) | > 100 µM (inactive) | 29.7 µM (inactive) | 37.9 µM | > 59.3 µM (inactive) | > 61.4 µM (inactive) | > 100 µM (inactive) |  | > 100 µM (inactive) | 97.5 µM (inactive) |
| COC(=O)/C=C(\CC(=O)OC)n1nnnc1[C@@H]1C[C@H](COC(c2ccccc2)(c2ccccc2)c2ccccc2)[C@H]2OC(C)(C)O[C@H]21 | 22.9 µM (inactive) | 11.1 µM (inactive) | > 100 µM (inactive) | > 100 µM (inactive) | > 100 µM (inactive) | 51.6 µM (inactive) | 76.7 µM (inactive) | > 100 µM (inactive) | > 100 µM (inactive) | > 100 µM (inactive) | > 100 µM (inactive) | > 100 µM (inactive) | 20.8 µM (inactive) |  | > 100 µM (inactive) | > 100 µM (inactive) | 54.2 µM (inactive) | > 100 µM (inactive) | > 100 µM (inactive) |  |
| O=Cc1cccc2c1Oc1c(cccc1C(=O)O)S2 |  | 25.7 µM (inactive) | 23.6 µM (inactive) | > 100 µM (inactive) | 70.8 µM (inactive) | 81.5 µM (inactive) | 67.1 µM (inactive) | 34.3 µM (inactive) | 59.2 µM (inactive) | > 100 µM (inactive) | 53.7 µM (inactive) | 85.3 µM (inactive) | 83 µM (inactive) | 35.4 µM | 49.9 µM (inactive) | > 100 µM (inactive) | 70.1 µM (inactive) | 81.1 µM (inactive) | 61.8 µM (inactive) | > 100 µM (inactive) |
| CC(C)(C)C(=O)CC1(O)C=C(O)C(O)(CC(=O)C(C)(C)C)O1 (stereo not drawn) | 6.46 µM (inactive) | 19.7 µM (inactive) | 61.7 µM (inactive) | 38.7 µM (inactive) | 29.9 µM (inactive) | 20.4 µM (inactive) | 21.2 µM (inactive) |  | 43.2 µM (inactive) | 82.2 µM (inactive) | 23.6 µM (inactive) | 14.7 µM (inactive) | > 100 µM (inactive) | 8.77 µM | 15.5 µM (inactive) | 44.8 µM (inactive) | 61.1 µM (inactive) | 13.6 µM (inactive) | 29.9 µM (inactive) | 22.1 µM (inactive) |
| COc1ccc(/N=N/C(=N\c2ccccc2)c2ccc(N(CCC#N)CCC#N)cc2)cc1 |  | 41 µM (inactive) | 49.2 µM (inactive) | 30.3 µM (inactive) | > 100 µM (inactive) | 22.7 µM (inactive) | 47.1 µM (inactive) | > 100 µM (inactive) | 85.9 µM (inactive) | 61.1 µM (inactive) | 45.3 µM (inactive) | 88.9 µM (inactive) | 33.5 µM (inactive) | 81.3 µM | 89.5 µM (inactive) | 40.6 µM (inactive) | 27.4 µM (inactive) | 80.7 µM (inactive) | > 100 µM (inactive) | 51.4 µM (inactive) |

Reference: ChEMBL document CHEMBL1201862, “PubChem BioAssay data set” (2004)
